According to the supplement of paper PMC10331698:
± gives the standard deviation of the averaged measurements.

Key:
Experiment in all cases: level (log10 ratio to DMSO vehicle control); higher = higher biomarker level / cell amount than vehicle control
[1] = compound: C=CC(=O)OCC(F)(F)C(F)(F)C(F)(F)COC(=O)C=C [1H,1H,5H,5H-Perfluoro-1,5-pentanediol diacrylate]; conditions: 6700 nM; in DMSO
Experimental: (§1)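 BioMAP Diversity Plus panel of 12 human primary cell co-culture systems (3C, 4H, LPS, SAg, BT, BF4T, BE3C, CASM3C, HDF3CGF, KF3CT, MyoF, Mphg). Compounds were added 1 h before stimulation and left for 24 h (MyoF 48 h; BT 72 h for soluble read-outs or 6 d for IgG). Biomarkers were read by ELISA, cytotoxicity by SRB, PBMC viability and proliferation by Alamar Blue. Each well value was divided by the mean of 8 DMSO control wells on the same plate and log10 transformed; duplicate blinded samples were tested at 4 concentrations.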

[2] = compound: FC(F)(F)C(F)(F)C(F)(F)C(F)(F)C(F)(F)C(F)(F)CC1CO1 [3-(Perfluorohexyl)-1,2-epoxypropane]; conditions: in DMSO
Experimental: as §1

[3] = compound: NC(=O)C(F)(F)C(F)(F)C(F)(F)C(F)(F)C(N)=O [Octafluoroadipamide]; conditions: in DMSO
Experimental: as §1

[4] = compound: NC(=O)C(F)(F)C(F)(F)C(F)(F)C(F)(F)F [Nonafluoropentanamide]; conditions: in DMSO
Experimental: as §1

[5] = compound: O=C(O)C=CC(F)(C(F)(F)F)C(F)(F)F [3-(Perfluoroisopropyl)-2-propenoic acid]; conditions: in DMSO
Experimental: as §1

[6] = compound: O=S(=O)(O)CCC(F)(F)C(F)(F)C(F)(F)C(F)(F)C(F)(F)C(F)(F)F [6:2 Fluorotelomer sulfonic acid]; conditions: in DMSO
Experimental: as §1

[7] = compound: OCC(F)(F)C(F)(F)C(F)(F)CO [Hexafluoroamylene glycol]; conditions: in DMSO
Experimental: as §1

Row | Test System | level (log10) [1] | level (log10) ([2]; 6700 nM) | level (log10) ([2]; 20000 nM) | level (log10) ([2]; 60000 nM) | level (log10) ([3]; 6700 nM) | level (log10) ([3]; 20000 nM) | level (log10) ([3]; 60000 nM) | level (log10) ([4]; 6700 nM) | level (log10) ([4]; 20000 nM) | level (log10) ([4]; 60000 nM) | level (log10) ([5]; 6700 nM) | level (log10) ([5]; 20000 nM) | level (log10) ([5]; 60000 nM) | level (log10) ([6]; 6700 nM) | level (log10) ([6]; 20000 nM) | level (log10) ([6]; 60000 nM) | level (log10) ([7]; 6700 nM) | level (log10) ([7]; 20000 nM) | level (log10) ([7]; 60000 nM)
1 | CASM3C:CD142/Tissue Factor | -0.0325 ± 0.015 | -0.0085 ± 0.005 | -0.0415 ± 0.042 | 0.005 ± 0.073 | 0.0005 ± 0.028 | -0.006 ± 0.025 | -0.034 ± 0.014 | 0.0195 ± 0.13 | 0.0125 ± 0.026 | -0.031 ± 0.028 | -0.037 ± 0.028 | -0.0315 ± 0.053 | -0.01 ± 0.067 | -0.01 ± 0.013 | -0.0345 ± 0.021 | 0.007 ± 0.02 | -0.0025 ± 0.016 | -0.0125 ± 0.0035 | 0.008 ± 0.024
2 | CASM3C:CXCL8/IL-8 | -0.0125 ± 0.00071 | 0.011 ± 0.016 | 0.011 ± 0.0099 | 0.0295 ± 0.025 | -0.007 ± 0.035 | 0.005 ± 0.0028 | -0.005 ± 0.031 | -0.003 ± 0.018 | -0.0105 ± 0.012 | 0.0065 ± 0.018 | 0.008 ± 0.025 | 0.0025 ± 0.016 | 0.0225 ± 0.0021 | 0.007 ± 0.0042 | -0.016 ± 0.011 | 0.0185 ± 0.019 | 0.028 ± 0.023 | -0.0055 ± 0.021 | 0.0015 ± 0.021
3 | CASM3C:CXCL9/MIG | -0.229 ± 0.011 | -0.014 ± 0.025 | -0.007 ± 0.016 | 0.0005 ± 0.026 | 0.0115 ± 0.053 | -0.004 ± 0.014 | 0.0215 ± 0.037 | -0.011 ± 0.013 | -0.029 ± 0.051 | -0.0075 ± 0.074 | -0.004 ± 0.0099 | 0.002 ± 0.0057 | 0.027 ± 0.023 | -0.0445 ± 0.0078 | -0.0315 ± 0.0035 | -0.015 ± 0.045 | -0.03 ± 0.011 | -0.0225 ± 0.016 | 0.009 ± 0.024
4 | CASM3C:HLA-DR | -0.0345 ± 0.018 | -0.016 ± 0.027 | -0.033 ± 0.0071 | 0.009 ± 0.057 | -0.0105 ± 0.022 | -0.019 ± 0.0057 | 0.01 ± 0.018 | -0.0315 ± 0.005 | -0.0005 ± 0.036 | -0.0275 ± 0.021 | -0.033 ± 0.011 | -0.0465 ± 0.022 | 0.0095 ± 0.044 | 0.0245 ± 0.005 | -0.0115 ± 0.0035 | -0.001 ± 0.0085 | 0.014 ± 0.016 | 0.0095 ± 0.015 | -0.0015 ± 0.028
5 | CASM3C:IL-6 | -0.0735 ± 0.00071 | -0.0375 ± 0.025 | -0.0335 ± 0.012 | 0.001 ± 0.089 | -0.0145 ± 0.0064 | -0.0185 ± 0.0035 | 0 ± 0.051 | 0.0185 ± 0.06 | -0.0285 ± 0.021 | 0.015 ± 0.014 | -0.035 ± 0.011 | -0.0525 ± 0.00071 | 0.001 ± 0.092 | -0.003 ± 0.011 | -0.014 ± 0.0014 | 0.006 ± 0.017 | -0.0015 ± 0.015 | -0.0155 ± 0.016 | 0.028 ± 0.028
6 | CASM3C:LDLR | -0.004 ± 0.0014 | -0.003 ± 0.02 | 0.0105 ± 0.012 | 0.025 ± 0.014 | -0.0045 ± 0.0064 | -0.005 ± 0.016 | 0.007 ± 0.0085 | 0.0055 ± 0.059 | -0.035 ± 0.0028 | 0.021 ± 0.072 | -0.006 ± 0.017 | -0.0045 ± 0.00071 | 0.008 ± 0.017 | 0.009 ± 0.0057 | -0.001 ± 0.018 | 0.011 ± 0.04 | -0.007 ± 0.013 | -0.0095 ± 0.019 | 0.024 ± 0.037
7 | CASM3C:M-CSF | -0.056 ± 0.021 | -0.0025 ± 0.012 | -0.0125 ± 0.011 | 0.0325 ± 0.056 | -0.0095 ± 0.0078 | -0.01 ± 0.0085 | -0.0065 ± 0.0092 | -0.0105 ± 0.0021 | -0.0075 ± 0.019 | 0.0195 ± 0.035 | -0.0195 ± 0.0078 | -0.0175 ± 0.011 | 0.009 ± 0.034 | -0.011 ± 0.044 | -0.002 ± 0.0085 | 0.002 ± 0.037 | -0.0075 ± 0.013 | -0.0195 ± 0.028 | 0.0135 ± 0.044
8 | CASM3C:PAI-I | 0.002 ± 0.0042 | 0.0055 ± 0.005 | 0.002 ± 0.0085 | 0.017 ± 0.0042 | 0.0005 ± 0.005 | -0.0085 ± 0.012 | 0.0045 ± 0.0092 | -0.008 ± 0.024 | -0.0065 ± 0.0064 | 0.0105 ± 0.0064 | 0.006 ± 0.0028 | 0 ± 0.0057 | 0.012 ± 0.0057 | -0.001 ± 0.023 | -0.0025 ± 0.015 | 0 ± 0.0099 | -0.0035 ± 0.015 | 0.017 ± 0.031 | 0.006 ± 0.0085
9 | CASM3C:SRB | -0.0025 ± 0.0021 | 0 ± 0.0085 | -0.009 ± 0.0014 | 0.0025 ± 0.00071 | 0.0075 ± 0.013 | 0.002 ± 0.013 | -0.005 ± 0.0042 | 0.005 ± 0.0057 | 0.0025 ± 0.0035 | 0.0035 ± 0.0035 | 0.006 ± 0.0042 | -0.011 ± 0.0042 | -0.003 ± 0.0028 | -0.004 ± 0.0028 | 0.0025 ± 0.0021 | 0.001 ± 0.0085 | -0.0005 ± 0.013 | -0.0085 ± 0.00071 | -0.0045 ± 0.0078
10 | CASM3C:Serum Amyloid A | -0.038 ± 0.0057 | -0.0115 ± 0.042 | -0.012 ± 0.013 | 0.031 ± 0.023 | 0.012 ± 0.014 | 0.0085 ± 0.0092 | 0.0185 ± 0.028 | -0.016 ± 0.018 | -0.018 ± 0.0057 | 0.008 ± 0.013 | 0.0085 ± 0.005 | -0.023 ± 0.017 | 0.026 ± 0.045 | 0.019 ± 0.014 | 0.021 ± 0.03 | 0.017 ± 0.031 | 0.016 ± 0.014 | -0.0055 ± 0.069 | 0.002 ± 0.0014
11 | HDF3CGF:CCL2/MCP-1 | -1.14 ± 0.03 | -0.0165 ± 0.0021 | -0.0045 ± 0.019 | 0.0055 ± 0.03 | 0.003 | -0.019 ± 0.028 | -0.0115 ± 0.005 | -0.0025 ± 0.019 | 0.0065 ± 0.012 | 0.01 ± 0.035 | -0.006 ± 0.018 | 0.006 ± 0.0085 | 0.017 ± 0.017 | 0.0075 ± 0.019 | 0.0085 ± 0.021 | 0.008 ± 0.014 | -0.003 ± 0.0071 | -0.004 ± 0.0057 | 0.007 ± 0.0071
12 | HDF3CGF:CXCL8/IL-8 | -1.07 ± 0.012 | -0.0175 ± 0.0035 | 0.005 ± 0.0028 | 0.0145 ± 0.0064 | 0.006 ± 0.017 | 0.0045 ± 0.0092 | 0.007 ± 0.0028 | -0.0045 ± 0.0035 | -0.0005 ± 0.0021 | 0.0015 ± 0.005 | -0.008 ± 0.0042 | 0.004 ± 0.011 | 0.0065 ± 0.013 | -0.01 ± 0.014 | -0.007 ± 0.013 | 0.008 ± 0.037 | -0.0325 ± 0.04 | -0.011 ± 0.0028 | 0.009 ± 0.024
13 | HDF3CGF:CXCL9/MIG | -0.779 | 0.0095 ± 0.0092 | 0.0085 ± 0.016 | -0.0085 ± 0.013 | -0.006 ± 0.0014 | -0.0055 ± 0.015 | 0.016 ± 0.025 | 0.017 ± 0.0028 | -0.0025 ± 0.0064 | 0.005 ± 0.018 | 0.017 ± 0.0071 | 0.02 ± 0.011 | 0.011 ± 0.023 | -0.013 ± 0.048 | -0.0395 ± 0.018 | -0.046 ± 0.038 | -0.001 ± 0.038 | 0.0055 ± 0.035 | -0.035 ± 0.083
14 | HDF3CGF:Collagen I | 0.117 ± 0.0085 | -0.001 ± 0.025 | -0.0145 ± 0.012 | 0.0545 ± 0.04 | -0.005 ± 0.0057 | -0.015 ± 0.033 | 0.0045 ± 0.042 | 0.02 ± 0.031 | 0.013 ± 0.057 | 0.067 ± 0.033 | -0.0205 ± 0.043 | -0.0065 ± 0.023 | 0.0475 ± 0.035 | -0.031 ± 0.095 | -0.007 ± 0.086 | 0.056 ± 0.11 | -0.005 ± 0.047 | 0.005 ± 0.09 | 0.0485 ± 0.12
15 | HDF3CGF:Collagen III | -0.177 ± 0.015 | -0.0075 ± 0.012 | -0.005 ± 0.0099 | 0.0155 ± 0.046 | 0.0035 ± 0.044 | 0.0225 ± 0.00071 | 0.023 ± 0.052 | 0.033 ± 0.0014 | 0.026 ± 0.0014 | 0.049 ± 0.0099 | -0.0125 ± 0.00071 | 0.009 ± 0.0014 | 0.033 ± 0.038 | -0.0555 ± 0.015 | -0.0115 ± 0.019 | 0.03 ± 0.093 | 0.009 ± 0.051 | 0.0115 ± 0.064 | 0.0515 ± 0.026
